#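 Test compounds were applied to cells in 96-well plates for 48 hours at 5 doses. The concentration for full growth arrest is given as TGI.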
# What was measured:
# Test in all cases: NCI-60 cell line screen, 48 h
# NCI-H226 lung = test system: NCI-H226 lung
# SK-MEL-28 melanoma = test system: SK-MEL-28 melanoma
# DU-145 prostate = test system: DU-145 prostate
# KM12 colon = test system: KM12 colon
# A549 NSCLC = test system: A549 NSCLC
# HOP-92 NSCLC = test system: HOP-92 NSCLC
# LOX IMVI melanoma = test system: LOX IMVI melanoma
# MDA-MB-435 = test system: MDA-MB-435
# NCI/ADR-RES ovarian = test system: NCI/ADR-RES ovarian
# SNB-19 CNS = test system: SNB-19 CNS
# A498 renal = test system: A498 renal
# UACC-62 melanoma = test system: UACC-62 melanoma
# M14 melanoma = test system: M14 melanoma
# SF-295 CNS = test system: SF-295 CNS
# TK-10 renal = test system: TK-10 renal
# OVCAR-3 ovarian = test system: OVCAR-3 ovarian
# COLO 205 colon = test system: COLO 205 colon
# SNB-75 CNS = test system: SNB-75 CNS
# UACC-257 melanoma = test system: UACC-257 melanoma
# HS 578T breast = test system: HS 578T breast
# HCC-2998 colon = test system: HCC-2998 colon
# MALME-3M melanoma = test system: MALME-3M melanoma
# HOP-62 NSCLC = test system: HOP-62 NSCLC
# CCRF-CEM leukemia = test system: CCRF-CEM leukemia
# EKVX NSCLC = test system: EKVX NSCLC
# SN12C renal = test system: SN12C renal
# NCI-H23 lung = test system: NCI-H23 lung
# ACHN renal = test system: ACHN renal
# SK-OV-3 ovarian = test system: SK-OV-3 ovarian
# SR leukemia = test system: SR leukemia
# 786-0 renal = test system: 786-0 renal
# NCI-H522 lung = test system: NCI-H522 lung
# SF-268 CNS = test system: SF-268 CNS
# MDA-N = test system: MDA-N
# IGROV1 ovarian = test system: IGROV1 ovarian
# OVCAR-8 ovarian = test system: OVCAR-8 ovarian
# T-47D breast = test system: T-47D breast
# UO-31 renal = test system: UO-31 renal
# RXF 393 renal = test system: RXF 393 renal
# SK-MEL-5 melanoma = test system: SK-MEL-5 melanoma
# HL-60(TB) leukemia = test system: HL-60(TB) leukemia
# MCF7 breast = test system: MCF7 breast
# NCI-H460 lung = test system: NCI-H460 lung
# K-562 leukemia = test system: K-562 leukemia
# OVCAR-5 ovarian = test system: OVCAR-5 ovarian
# BT-549 breast = test system: BT-549 breast
# SF-539 CNS = test system: SF-539 CNS
# MDA-MB-231 breast = test system: MDA-MB-231 breast
# SW-620 colon = test system: SW-620 colon
# MOLT-4 leukemia = test system: MOLT-4 leukemia
# PC-3 prostate = test system: PC-3 prostate
# HCT-116 colon = test system: HCT-116 colon
# HT29 colon = test system: HT29 colon
# RPMI-8226 leukemia = test system: RPMI-8226 leukemia
# CAKI-1 renal = test system: CAKI-1 renal
# U251 CNS = test system: U251 CNS
# HCT-15 colon = test system: HCT-15 colon
# OVCAR-4 ovarian = test system: OVCAR-4 ovarian
# SK-MEL-2 melanoma = test system: SK-MEL-2 melanoma
compound,measurement,setting,value
CC(=O)n1nc(-c2ccccc2)n(/N=C/c2ccc([N+](=O)[O-])o2)c1=O,TGI,NCI-H226 lung,> 19.8 µM
same,TGI,SK-MEL-28 melanoma,22.3 µM
same,TGI,DU-145 prostate,16.7 µM
same,TGI,KM12 colon,36.4 µM
same,TGI,A549 NSCLC,25 µM
same,TGI,HOP-92 NSCLC,35.9 µM
same,TGI,LOX IMVI melanoma,23.2 µM
same,TGI,MDA-MB-435,12.1 µM
same,TGI,NCI/ADR-RES ovarian,27.5 µM
same,TGI,SNB-19 CNS,36.9 µM
same,TGI,A498 renal,45 µM
same,TGI,UACC-62 melanoma,23.8 µM
same,TGI,M14 melanoma,4.08 µM
same,TGI,SF-295 CNS,47.9 µM
same,TGI,TK-10 renal,25.5 µM
same,TGI,OVCAR-3 ovarian,17 µM
same,TGI,COLO 205 colon,12.7 µM
same,TGI,SNB-75 CNS,26.8 µM
same,TGI,UACC-257 melanoma,12.2 µM
same,TGI,HS 578T breast,38 µM
same,TGI,HCC-2998 colon,19.1 µM
same,TGI,MALME-3M melanoma,16.5 µM
same,TGI,HOP-62 NSCLC,19.6 µM
same,TGI,CCRF-CEM leukemia,6.55 µM
same,TGI,EKVX NSCLC,> 49.1 µM
same,TGI,SN12C renal,7.39 µM
same,TGI,NCI-H23 lung,14.3 µM
same,TGI,ACHN renal,19.1 µM
same,TGI,SK-OV-3 ovarian,40.2 µM
same,TGI,SR leukemia,14.1 µM
same,TGI,786-0 renal,7.97 µM
same,TGI,NCI-H522 lung,7.15 µM
same,TGI,SF-268 CNS,14.1 µM
same,TGI,MDA-N,3.92 µM
same,TGI,IGROV1 ovarian,37.4 µM
same,TGI,OVCAR-8 ovarian,33.3 µM
same,TGI,T-47D breast,44.5 µM
same,TGI,UO-31 renal,4.17 µM
same,TGI,RXF 393 renal,10.4 µM
same,TGI,SK-MEL-5 melanoma,14.8 µM
same,TGI,HL-60(TB) leukemia,9.73 µM
same,TGI,MCF7 breast,13.8 µM
same,TGI,NCI-H460 lung,15.9 µM
same,TGI,K-562 leukemia,37 µM
same,TGI,OVCAR-5 ovarian,10.2 µM
same,TGI,BT-549 breast,17.6 µM
same,TGI,SF-539 CNS,18.4 µM
same,TGI,MDA-MB-231 breast,17.1 µM
same,TGI,SW-620 colon,22.9 µM
same,TGI,MOLT-4 leukemia,18.6 µM
same,TGI,PC-3 prostate,30.9 µM
same,TGI,HCT-116 colon,3.71 µM
same,TGI,HT29 colon,21.8 µM
same,TGI,RPMI-8226 leukemia,28.2 µM
same,TGI,CAKI-1 renal,24.4 µM
same,TGI,U251 CNS,33.4 µM
same,TGI,HCT-15 colon,15.4 µM
same,TGI,OVCAR-4 ovarian,35.6 µM
same,TGI,SK-MEL-2 melanoma,11.5 µM
c1ccc([P+](CCCCCCCC[P+](c2ccccc2)(c2ccccc2)c2ccccc2)(c2ccccc2)c2ccccc2)cc1,TGI,NCI-H226 lung,> 100 µM
same,TGI,SK-MEL-28 melanoma,> 100 µM
same,TGI,DU-145 prostate,> 100 µM
same,TGI,KM12 colon,49.5 µM
same,TGI,A549 NSCLC,> 100 µM
same,TGI,HOP-92 NSCLC,43.9 µM
same,TGI,LOX IMVI melanoma,32.9 µM
same,TGI,MDA-MB-435,> 68.4 µM
same,TGI,NCI/ADR-RES ovarian,> 100 µM
same,TGI,SNB-19 CNS,> 100 µM
same,TGI,A498 renal,> 86.4 µM
same,TGI,UACC-62 melanoma,> 94.4 µM
same,TGI,M14 melanoma,> 100 µM
same,TGI,SF-295 CNS,> 72.9 µM
same,TGI,TK-10 renal,> 73.7 µM
same,TGI,OVCAR-3 ovarian,> 100 µM
same,TGI,COLO 205 colon,2.71 µM
same,TGI,SNB-75 CNS,7.73 µM
same,TGI,UACC-257 melanoma,> 37.7 µM
same,TGI,HS 578T breast,> 100 µM
same,TGI,HCC-2998 colon,> 100 µM
same,TGI,MALME-3M melanoma,> 100 µM
same,TGI,HOP-62 NSCLC,> 100 µM
same,TGI,CCRF-CEM leukemia,> 100 µM
same,TGI,EKVX NSCLC,> 100 µM
same,TGI,SN12C renal,> 100 µM
same,TGI,NCI-H23 lung,> 52.8 µM
same,TGI,ACHN renal,> 100 µM
same,TGI,SK-OV-3 ovarian,> 100 µM
same,TGI,SR leukemia,51.6 µM
same,TGI,786-0 renal,> 100 µM
same,TGI,NCI-H522 lung,12.1 µM
same,TGI,SF-268 CNS,> 100 µM
same,TGI,MDA-N,> 100 µM
same,TGI,IGROV1 ovarian,> 23.9 µM
same,TGI,OVCAR-8 ovarian,> 100 µM
same,TGI,T-47D breast,> 100 µM
same,TGI,UO-31 renal,> 100 µM
same,TGI,RXF 393 renal,> 100 µM
same,TGI,SK-MEL-5 melanoma,40.7 µM
same,TGI,HL-60(TB) leukemia,> 31.8 µM
same,TGI,MCF7 breast,> 87.5 µM
same,TGI,NCI-H460 lung,> 48.1 µM
same,TGI,K-562 leukemia,> 100 µM
same,TGI,OVCAR-5 ovarian,> 91.1 µM
same,TGI,BT-549 breast,> 100 µM
same,TGI,SF-539 CNS,19.6 µM
same,TGI,MDA-MB-231 breast,> 100 µM
same,TGI,SW-620 colon,> 100 µM
same,TGI,MOLT-4 leukemia,> 86 µM
same,TGI,PC-3 prostate,> 30.8 µM
same,TGI,HCT-116 colon,> 100 µM
same,TGI,HT29 colon,> 50 µM
same,TGI,RPMI-8226 leukemia,23.8 µM
same,TGI,CAKI-1 renal,> 100 µM
same,TGI,U251 CNS,> 100 µM
same,TGI,HCT-15 colon,> 100 µM
same,TGI,OVCAR-4 ovarian,> 100 µM
same,TGI,SK-MEL-2 melanoma,24.7 µM

# Reference: PubChem BioAssay (NCI)
